Values of other authors, collected in patent US6299888A, “Azelastine hydrochloride-containing percutaneous preparation having good percutaneous absorbability and reduced skin irritation” (Teikoku Seiyaku Kabushiki Kaisha, priority 1997, dated 2001).
Where a name gives a salt, the structure may show the parent alone.

CN1CCCC(n2nc(Cc3ccc(Cl)cc3)c3ccccc3c2=O)CC1 (stereo not shown) [azelastine hydrochloride]
dissociation constant (pKa): about 9.5
